Results from patent publication US7687491B2, “Heterocyclic compound” (Daiichi Sankyo Company, Limited, priority 2005, dated 2010).
Counter-ions that a name gives are not always drawn.

Each molecule was assayed on host-versus-graft reaction (HvGR) in the rat (assay: Inhibitory activity against host-versus-graft reaction (HvGR) in the rat (popliteal lymph node weight)). Details: po, 1 mg/kg orally once daily for 4 successive days, Lewis rats injected with WKAH/Hkm spleen cells, weight of popliteal lymph nodes vs control group, read-out: Inhibition Rate (%, 1 mg/kg of administration).
Type: in vivo
Text: Determination of Inhibitory Activities of the Compound Against Host-Versus-graft Reaction (HvGR) in the Rat
(1) Two strains of rats [Lewis rats (male, 6 weeks of age, Charles River Japan Inc.) and WKAH/Hkm rats (male, 7 weeks of age, Japan SLC Inc.)] were used. Five rats (host) per group were used.
Spleen cells were isolated from the spleens of WKAH/Hkm rats or Lewis rats and floated in RPMI1640 medium (Life Technologies Inc.) at a concentration of 1×10^8 cells/ml. A 0.1-ml aliquot of the medium containing the free-floating spleen cells (1×10^7 cells) of WKAH/Hkm rats or Lewis rats was then intradermally injected into the bilateral foot pads of the hindlimbs of both sides of Lewis rats.
(3) Administration of Test Compound
The test compound was suspended in 0.5% tragacantha solution. The suspended solution of a compound of the present invention (5 ml/kg of body weight of the rat) was orally administered to rats of the drug-treated group (the Lewis rats in which spleen cells of WKAH/Hkm rats were injected and the test compound was administered) once daily for 4 successive days starting on the day of the spleen cell injection. Furthermore, tragacantha solution (0.5%) instead of the test substance was orally administered to rats in the “same strain group” (Lewis rats injected with spleen cells of Lewis rats) and the control group (Lewis rats injected with spleen cells of WKAH/Hkm rats and not treated with the test compound).
(4) Determination of Inhibitory Activity Against HvGR
The average weight of the popliteal lymph nodes of the same strain rats was subtracted from the individual weights of the popliteal lymph nodes of individual rats (“weight of the popliteal lymph nodes after HvGR-induction”). The inhibitory activity of a compound was calculated from the “weight of the popliteal lymph nodes after HvGR induction” of individual rats in the drug-treated group versus the average “weight of the popliteal lymph nodes after HvGR induction” in the control group.

Row | Compound | inhibition in vivo at 1 mg/kg [%]
1 | CCc1cc(CN2CC(C(=O)O)C2)sc1-c1noc(-c2ccc(Oc3ccccc3F)cc2)n1 [Example 10, 1-[(4-Ethyl-5-{5-[4-(2-fluorophenoxy)phenyl]-1,2,4-oxadiazol-3-yl}-2-thienyl)methyl]azetidine-3-carboxylic acid 1/2 oxalate] | 61.8
2 | Cc1cc(CN2CC(C(=O)O)C2)sc1-c1noc(-c2ccc(Oc3ccccc3)c(F)c2)n1 [Example 11, 1-({5-[5-(3-Fluoro-4-phenoxyphenyl)-1,2,4-oxadiazol-3-yl]-4-methyl-2-thienyl}methyl)azetidine-3-carboxylic acid] | 51.6
3 | Cc1cc(CN2CC(C(=O)O)C2)sc1-c1noc(-c2ccc(Oc3ccccc3)cc2)n1 [Example 12, 1-({4-Methyl-5-[5-(4-phenoxyphenyl)-1,2,4-oxadiazol-3-yl]-2-thienyl}methyl)azetidine-3-carboxylic acid] | 55.4
4 | CCc1cc(CN2CC(C(=O)O)C2)sc1-c1noc(-c2ccc(Oc3ccccc3)cc2)n1 [Example 13, 1-({4-Ethyl-5-[5-(4-phenoxyphenyl)-1,2,4-oxadiazol-3-yl]-2-thienyl}methyl)azetidine-3-carboxylic acid] | 61.3
5 | CCc1cc(CN2CC(C(=O)O)C2)sc1-c1noc(-c2ccc(Oc3ccccc3)c(F)c2)n1 [Example 14, 1-({4-Ethyl-5-[5-(3-fluoro-4-phenoxyphenyl)-1,2,4-oxadiazol-3-yl]-2-thienyl}methyl)azetidine-3-carboxylic acid] | 65.6
6 | CCc1cc(CN2CC(C(=O)O)C2)sc1-c1noc(-c2ccc(Oc3cccc(F)c3)cc2)n1 [Example 17, 1-[(4-Ethyl-5-{5-[4-(3-fluorophenoxy)phenyl]-1,2,4-oxadiazol-3-yl}-2-thienyl)methyl]azetidine-3-carboxylic acid] | 65
7 | CC(C)Cc1ccc(-c2nc(-c3ccc(CN4CC(C(=O)O)C4)nc3)no2)cc1Cl [Example 26, 1-({5-[5-(3-Chloro-4-isobutylphenyl)-1,2,4-oxadiazol-3-yl]pyridin-2-yl}methyl)azetidine-3-carboxylic acid] | 80
8 | Cc1cc(-c2nc(-c3ccc(CN4CC(C(=O)O)C4)nc3C)no2)ccc1CC(C)C [Example 27, 1-({5-[5-(4-Isobutyl-3-methylphenyl)-1,2,4-oxadiazol-3-yl]-6-methylpyridin-2-yl}methyl)azetidine-3-carboxylic acid 1/2 oxalate] | 80.6
9 | Cc1cc(-c2nc(-c3ccc(CN4CC(C(=O)O)C4)nc3)no2)ccc1CC(C)C [Example 28, 1-({5-[5-(4-Isobutyl-3-methylphenyl)-1,2,4-oxadiazol-3-yl]pyridin-2-yl}methyl)azetidine-3-carboxylic acid 1/2 oxalate] | 77.5
10 | CCc1nc(CN2CC(C(=O)O)C2)ccc1-c1noc(-c2ccc(CC(C)C)c(C)c2)n1 [Example 29, 1-({6-Ethyl-5-[5-(4-isobutyl-3-methylphenyl)-1,2,4-oxadiazol-3-yl]pyridin-2-yl}methyl)azetidine-3-carboxylic acid] | 83.5
11 | CC[C@H](C)Oc1ccc(-c2nc(-c3ccc(CN4CC(C(=O)O)C4)cc3)no2)cc1 [Reference Compound 1, reference compound] | -15.5
12 | O=C(O)C1CN(Cc2ccc(-c3noc(-c4ccc(OC5CCC5)cc4)n3)cc2)C1 [Reference Compound 2, reference compound] | -19
